Measured values as given in article PMC7205606, “Characterization of a toxin-antitoxin system in Mycobacterium tuberculosis suggests neutralization by phosphorylation as the antitoxicity mechanism” (Communications Biology, 2020).

Columns and labels:
TakA (Rv1044), MBP-TakA = TakA (Rv1044), MBP-TakA (Mycobacterium tuberculosis, UniProt P96357)
TglT (Rv1045) = TglT (Rv1045) (Mycobacterium tuberculosis, UniProt P96356)
Sequence of TglT (Rv1045) (P96356 1-293 limits assumed): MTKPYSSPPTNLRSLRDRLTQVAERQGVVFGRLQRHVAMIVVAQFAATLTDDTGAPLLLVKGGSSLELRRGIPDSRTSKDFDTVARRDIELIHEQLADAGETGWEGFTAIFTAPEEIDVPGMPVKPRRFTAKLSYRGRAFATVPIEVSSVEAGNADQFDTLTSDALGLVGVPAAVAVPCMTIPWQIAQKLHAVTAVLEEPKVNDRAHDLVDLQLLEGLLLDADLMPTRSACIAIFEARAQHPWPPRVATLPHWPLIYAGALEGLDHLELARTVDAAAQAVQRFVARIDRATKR

Sequence of TakA (Rv1044), MBP-TakA (P96357 entry or part of it): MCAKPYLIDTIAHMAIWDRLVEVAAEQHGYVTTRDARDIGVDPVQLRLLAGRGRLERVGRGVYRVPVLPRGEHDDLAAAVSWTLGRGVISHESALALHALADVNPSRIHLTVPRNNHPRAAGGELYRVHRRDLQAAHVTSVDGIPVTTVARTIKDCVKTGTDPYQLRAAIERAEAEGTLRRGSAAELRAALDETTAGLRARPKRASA

SMILES	in vitro kinase assay, 32P transfer to TglT, SDS-PAGE (TakA (Rv1044), MBP-TakA)	native-PAGE autoradiography with unlabelled NTP competition (TglT (Rv1045))
Nc1ncnc2c1ncn2[C@@H]1O[C@H](COP(=O)(O)OP(=O)(O)OP(=O)(O)O)[C@@H](O)[C@H]1O [ATP]	When incubating MBP-TakA with TglT (Fig. 5a), we detected radioactively labeled TglT species in SDS-PAGE.	
Nc1nc2c(ncn2[C@@H]2O[C@H](COP(=O)(O)OP(=O)(O)OP(=O)(O)O)[C@@H](O)[C@H]2O)c(=O)[nH]1 [GTP]		We conclude that TglT specifically binds GTP.
